According to US20230227466A1, “SUBSTITUTED THIENOPYRIMIDINES THAT INTERACT WITH THE RAS SUPERFAMILY FOR THE TREATMENT OF CANCERS, INFLAMMATORY DISEASES, RASOPATHIES, AND FIBROTIC DISEASE” (SHY Therapeutics, LLC, priority 2020, published 2023):

Legend:
Kinetic solubility assay = type: physicochemical; conditions: phosphate-buffered saline pH 7.4 with 2% DMSO, aqueous buffer, kinetic from dmso stock; pH 7.4 PBS + 2% DMSO, 25° C., two hours; effective range approximately 2-400 μM
Protocol: Equipment: Water purification system Millipore Milli-Q Gradient A10 (Millipore, France); Thermomixer R Block, 1.5 ml (Eppendorf, Germany; Cat #5355); Matrix Multichannel Electronic Pipette 2-125 μL, 5-250 μL, 15-1250 μL (Thermo Scientific, USA; Cat ##2011, 2012, 2004); SpectraMax Plus Microplate Reader (Molecular Devices, USA; Product #02196); Multi-Well Plate Vacuum Manifold (Pall Corporation, USA; Product #5014); and Vacuum pump (Millipore, USA; Model #XX5500000)
Analytical System: The measurements were performed using SpectraMax Plus reader in UV-Vis mode. Acquisition and analysis of the data were performed using SoftMax Pro v.5.4 (Molecular Devices) and Excel 2010 data analysis software.
Methods: Briefly, using a 20 mM stock solution of the compound in 100% DMSO dilutions were prepared to a theoretical concentration of 400 μM in duplicates in phosphate-buffered saline pH 7.4 (138 mM NaCl, 2.7 mM KCl, 10 mM K-phosphate) with 2% final DMSO. The experimental compound dilutions in PBS were further allowed to equilibrate at 25° C. on a thermostatic shaker for two hours and then filtered through HTS filter plates using a vacuum manifold. The filtrates of test compounds were diluted 2-fold with acetonitrile with 2% DMSO before measuring.
In parallel, compound dilutions in acetonitrile/PBS (1:1) were prepared to theoretical concentrations of 0 μM (blank), 10 μM, 25 μM, 50 μM, 100 μM, and 200 μM with 2% final DMSO to generate calibration curves. Ondansetron was used as reference compound to control proper assay performance. 200 μL of each sample was transferred to 96-well plate and measured in 200-550 nm range with 5 nm step.
The concentrations of compounds in PBS filtrate are calculated using a dedicated Microsoft Excel calculation script. Proper absorbance wavelengths for calculations are selected for each compound manually based on absorbance maximums (absolute absorbance unit values for the minimum and maximum concentration points within 0-3 OD range). Each of the final datasets is additionally visually evaluated by the operator and goodness of fit (R2) is calculated for each calibration curve. […] This method is not suitable for liquid (at 25° C.) substances (were not present among the tested compounds). Table 3A provides the kinetic solubility for some of the exemplified compounds.

[1] = system: ERK1/2 phosphorylation in Panc-1 cells; assay: Western ERK1/2 cell-based phosphorylation assay; set-up: species or system human; conditions: at 10 μM, values in brackets < > are activation %, not inhibition
Outline: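 Western blot with anti-phospho-p44/42 (Thr202/Tyr204) measured ERK1/2 phosphorylation after 15 min EGF (1.5 ng/ml) stimulation. Beforehand, serum-starved (0.5% FBS, overnight) Panc-1 cells received compounds for 6 h at 37 °C, at 10 μM final in 0.3% DMSO or as dilution series for IC50.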

[2] = system: Akt phosphorylation in Panc-1 cells; assay: Western AKT cell-based phosphorylation assay; set-up: species or system human; conditions: at 10 μM, values in brackets < > are activation %, not inhibition
Outline: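 Phospho-Akt (Ser473) western blot of Panc-1 lysates, with Ponceau S to confirm uniform loading. Before lysis, cells were serum-starved overnight (0.5% FBS), incubated 6 h at 37° C with 10 μM compound in 0.3% DMSO and stimulated 15 min with 1.5 ng/ml EGF.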

solubility kinetic at 2 h (Kinetic solubility assay) [µM]	SMILES	% inh of ERK1/2 phosphorylation in PANC-1 [1]	% inh of AKT phosphorylation in PANC-1 [2]
49	CO[C@@H]1CC[C@@H](Nc2nc(-c3nccn3C)nc3sc(-c4ccn(C(C)C)n4)c(C)c23)C1 (racemic) [Compound 33, rac-6-(1-Isopropyl-1H-pyrazol-3-yl)-N-((1R,3R)-3-methoxycyclopentyl)-5-methyl-2-(1-methyl-1H-imidazol-2-yl)thieno[2,3-d]pyrimidin-4-amine]	D (76-100% inhibition)	0 (0% inhibition)
> 400	COC1CCN(c2nc(-c3nccn3C)nc3sc(-c4ccn(C(C)C)n4)c(C)c23)C1 (racemic) [Compound 34, rac-6-(1-Isopropyl-1H-pyrazol-3-yl)-4-(3-methoxypyrrolidin-1-yl)-5-methyl-2-(1-methyl-1H-imidazol-2-yl)thieno[2,3-d]pyrimidine]	D (76-100% inhibition)	0 (0% inhibition)
> 400	COCC1CCN(c2nc(-c3nccn3C)nc3sc(-c4ccn(C(C)C)n4)c(C)c23)C1 (racemic) [Compound 38, rac-6-(1-Isopropyl-1H-pyrazol-3-yl)-4-(3-(methoxymethyl)pyrrolidin-1-yl)-5-methyl-2-(1-methyl-1H-imidazol-2-yl)thieno[2,3-d]pyrimidine]	D (76-100% inhibition)	B (26-50% inhibition)
82	COC1CCCN(c2nc(-c3nccn3C)nc3sc(-c4ccn(C(C)C)n4)c(C)c23)C1 (racemic) [Compound 40, rac-6-(1-Isopropyl-1H-pyrazol-3-yl)-4-(3-methoxypiperidin-1-yl)-5-methyl-2-(1-methyl-1H-imidazol-2-yl)thieno[2,3-d]pyrimidine]	D (76-100% inhibition)	D (76-100% inhibition)
76	CO[C@H]1CC(Nc2nc(-c3nccn3C)nc3sc(-c4ccn(C(C)C)n4)c(C)c23)C[C@@H]1OC (racemic) [Compound 44, rac-N-((3S,4S)-3,4-Dimethoxycyclopentyl)-6-(1-isopropyl-1H-pyrazol-3-yl)-5-methyl-2-(1-methyl-1H-imidazol-2-yl)thieno[2,3-d]pyrimidin-4-amine]	D (76-100% inhibition)	<A>
18	COC[C@@H]1CC[C@@H]1CNc1nc(-c2nccn2C)nc2sc(-c3ccn(C(C)C)n3)c(C)c12 (racemic) [Compound 63, rac-6-(1-Isopropyl-1H-pyrazol-3-y)-N-(((1S,2R)-2-(methoxymethyl)cyclobutyl)methyl)-5-methyl-2-(1-methyl-1H-imidazol-2-yl)thieno[2,3-d]pyrimidin-4-amine]	D (76-100% inhibition)	C (51-75% inhibition)
79	CO[C@H]1CC[C@@H](Nc2nc(-c3ccccn3)nc3sc(-c4ccn(C(C)C)n4)c(C)c23)C1 (racemic) [Compound 69, Rac-6-(1-isopropyl-1H-pyrazol-3-yl)-N-((1R,3S)-3-methoxycyclopentyl)-5-methyl-2-(pyridine-2-yl)thieno[2,3-d]pyrimidin-4-amine]	D (76-100% inhibition)	D (76-100% inhibition)
–	COc1cccc(Nc2nc(-c3nccn3C)nc3sc(-c4ccn(C(C)C)n4)c(C)c23)n1.Cl [Compound 65, 6-(1-Isopropyl-1H-pyrazol-3-yl)-N-(6-methoxypyridin-2-yl)-5-methyl-2-(1-methyl-1H-imidazol-2-yl)thieno[2,3-d]pyrimidin-4-amine hydrochloride salt]	D (76-100% inhibition)	B (26-50% inhibition)
–	COc1cc(Nc2nc(-c3nccn3C)nc3sc(-c4ccn(C(C)C)n4)c(C)c23)ccn1 [Compound 67, 6-(1-Isopropyl-1H-pyrazol-3-yl)-N-(2-methoxypyridin-4-yl)-5-methyl-2-(1-methyl-1H-imidazol-2-yl)thieno[2,3-d]pyrimidin-4-amine]	0 (0% inhibition)	<A>
–	COc1ccnc(Nc2nc(-c3nccn3C)nc3sc(-c4ccn(C(C)C)n4)c(C)c23)n1 [Compound 68, 6-(1-Isopropyl-1H-pyrazol-3-yl)-N-(4-methoxypyrimidin-2-yl)-5-methyl-2-(1-methyl-1H-imidazol-2-yl)thieno[2,3-d]pyrimidin-4-amine]	C (51-75% inhibition)	<A>
–	Cc1c(-c2ccn(C(C)C)n2)sc2nc(-c3ccccn3)nc(N3CCC(COC(C)C)C3)c12 (stereo not drawn) [Compound 72, 4-(3-(Isopropoxymethyl)pyrrolidin-1-yl)-6-(1-isopropyl-1H-pyrazol-3-yl)-5-methyl-2-(pyridin-2-yl)thieno[2,3-d]pyrimidine]	D (76-100% inhibition)	B (26-50% inhibition)
–	COCCn1cnc(-c2nc(O)c3scc(-c4ccccn4)c3n2)c1 [Compound 78, 2-(1-(2-Methoxyethyl)-1H-imidazol-4-yl)-7-(pyridin-2-yl)thieno[3,2-d]pyrimidin-4-ol]	0 (0% inhibition)	0 (0% inhibition)
–	COCCCn1ccnc1-c1nc(O)c2scc(-c3ccccn3)c2n1 [Compound 79, 2-(1-(3-Methoxypropyl)-1H-imidazol-2-yl)-7-(pyridin-2-yl)thieno[3,2-d]pyrimidin-4-ol]	0 (0% inhibition)	<B>
–	CCOCCn1ccnc1-c1nc(O)c2scc(-c3ccccn3)c2n1 [Compound 80, 2-(1-(2-Ethoxyethyl)-1H-imidazol-2-yl)-7-(pyridin-2-yl)thieno[3,2-d]pyrimidin-4-ol]	A (1-25% inhibition)	<D>
–	Oc1nc(-c2nccn2CCOCC(F)(F)F)nc2c(-c3ccccn3)csc12 [Compound 81, 7-(Pyridin-2-yl)-2-(1-(2-(2,2,2-trifluoroethoxy)ethyl)-1H-imidazol-2-yl)thieno[3,2-d]pyrimidin-4-ol]	B (26-50% inhibition)	<D>
–	CC(C)OCCn1ccnc1-c1nc(O)c2scc(-c3ccccn3)c2n1 [Compound 82, 2-(1-(2-Isopropoxyethyl)-1H-imidazol-2-yl)-7-(pyridin-2-yl)thieno[3,2-d]pyrimidin-4-ol]	A (1-25% inhibition)	<D>
–	Oc1nc(-c2nccn2CCOCc2ccccc2)nc2c(-c3ccccn3)csc12 [Compound 83, 2-(1-(2-(Benzyloxy)ethyl)-1H-imidazol-2-yl)-7-(pyridin-2-yl)thieno[3,2-d]pyrimidin-4-ol]	B (26-50% inhibition)	<D>
–	COc1cccn2c(-c3nc(O)c4scc(-c5ccccn5)c4n3)ncc12 [Compound 84, 2-(8-Methoxyimidazo[1,5-a]pyridin-3-yl)-7-(pyridin-2-yl)thieno[3,2-d]pyrimidin-4-ol]	0 (0% inhibition)	A (1-25% inhibition)
–	CO[C@H]1C[C@@H](Nc2nc(-c3nccn3C)nc3sc(-c4ccn(C(C)C)n4)c(C)c23)C1 [Compound 96, 6-(1-isopropyl-1H-pyrazol-3-yl)-N-((1s,3s)-3-methoxycyclobutyl)-5-methyl-2-(1-methyl-1H-imidazol-2-yl)thieno[2,3-d]pyrimidin-4-amine]	B (26-50% inhibition)	0 (0% inhibition)
